This note sets out measurements from US6982150B2, “System and method for identifying proteins involved in force-initiated signal transduction” (priority 2002, dated 2006).

One assay deals with L-929 cells. As to the kind of experiment: Stretch-dependent paxillin assembly at focal contacts in intact cells (fluorescence microscopy / immunostaining). It counts as cell-based, Mouse. Particulars: intact L-929 cells, biaxial stretch 10%, genistein 100 μM, FIG. 4B.
Assay [1] deals with Triton X-100-insoluble cytoskeletons of L-929 cells. As to the kind of experiment: Stretch-dependent GFP paxillin binding to Triton X-100-insoluble cytoskeletons (fluorescence, Western blot). Set-up: species or system Mouse. A general note: A western blot detects proteins with antibodies after separation by electrophoresis.
Method: Cells were washed once with isotonic ISO buffer (20 mM Hepes, pH 7.5, 150 mM NaCl, 0.5 mM EDTA, 1 mM DTT, 4 mM MgCl2, 1 mM PMSF, 15 μg/ml aprotinin), treated with 0.25% Triton X-100/ISO(+) buffer (ISO buffer supplemented with 0.5 mM ATP, 2% BSA) for 2 min. and washed three times with ISO (+) buffer.
The supernatant was filtrated using PD-10 column (Amersham Pharmacia Biotech, Piscataway, N.J.) preequilibrated with ISO buffer.
L-929 cells were cultured on the silicone substrate and Triton X-100 treated for 2 minutes, as indicated above. Thereafter, the Triton-X-100-insoluble cytoskeleton was washed 3 times with ISO(+) buffer to remove Triton X-100 and remaining Triton-soluble cellular components. After the third wash, the Triton X-100-insoluble cytoskeleton in ISO (+) buffer was left unstretched, stretched for 15 sec, or relaxed (pre-stretched and released from the stretch). The buffer was replaced with the lysate from L929 cells or 293 cells stably transfected with GFP paxillin and incubated for 2 minutes. The lysate was washed 4 times with ISO(+) buffer.
Cytoskeletons were stretched or unstretched. […]

On to `O=c1c(-c2ccc(O)cc2)coc2cc(O)cc(O)c12` [genistein], for which, in the assay on L-929 cells, the stretch-dependent paxillin accumulation entry is “not inhibited”. Moreover, in assay [1] (cells treated prior to Triton extraction, subconfluent, FIG. 5A, 5B, 5D), the “amount of GFP paxillin bound to the stretched cytoskeletons” value is on record as “increase”.
Regarding `[Na+].[Na+].[Na+].[O]=[V]([O-])([O-])[O-]` [sodium orthovandate], the “stretch-dependent GFP paxillin binding” value in assay [1] (1 mM added to lysates together with PAO, DTT excluded, FIG. 5C) is “did not affect”.
